According to patent US20160310369A1, “Low Viscosity Hair Care Composition” (The Procter & Gamble Company, priority 2015, published 2016):
Counter-ions that a name gives are not always drawn.

Experiment: Kinematic viscosity of surfactant base formulation with added agent, calibrated Cannon viscometers at 40° C.
Type: physicochemical
Settings: for Kinematic viscosity at 40 C. [cSt] 2% oil: 2% agent in base formulation; for Kinematic viscosity at 40 C. [cSt] Lowest viscosity achieved: lowest over 2-8% agent, Table 2; for Kinematic viscosity at 40 C. [cSt] 4% oil: 4% agent in base formulation; for Kinematic viscosity at 40 C. [cSt] 6% oil: 6% agent in base formulation; for Kinematic viscosity at 40 C. [cSt] 8% oil: 8% agent in base formulation
Excerpt: Referring to Tables 1 and 2, the base formulations were made by mixing 1.6% perfume, 24% sodium undecyl sulfate (CAS#1072-24-8) active, 6% lauramidopropyl betaine (CAS#4292-10-8) active and 60.4% deionized water which leaves 8% unfilled for the addition of a viscosity reducing agent (the balance being filled in by distilled water). For all compositions, the surfactant, water and additives including viscosity reducing agents were expected to be in a single phase.
The agents from Tables 1 and 2 were added to the base formulation at a percentage of 2%, 4%, 6%, and 8% into the above surfactant solution. The subsequent formulations were vortexed and put into oven at 60° C. overnight to form homogeneous solution. The viscosities of the formulations were measured with calibrated viscometers (Size 200/350/450) from Cannon Instrument Company (2139 High Tech Road, State College, Pa., USA, 16803).
(§1) After the equilibration, the formulations were drawn to reach the starting mark with a rubber suction bulb and the flow time between the starting mark and end mark was recorded for calculation. Each formulation was measured three times to calculate average and standard deviation. Between samples, viscometer was cleaned with water and acetone to rinse off residual.
Viscosity values were calculated based on the equation:
Viscosity (mm^2/s·(cSt))=Time (s)*Constant (mm^2/s^2·(cSt/s))
The time in the above equation is the flow time recorded in the experiment and the constant numbers for each calibrated viscometer were obtained from the manuals.
The viscosity of the hair care composition can be calculated using the following method: Combine ingredients including surfactants, perfumes, viscosity reducing agents, polymers, other ingredients and the aqueous medium in a vessel. Samples are vortexed and placed into oven at 60° C. overnight to form a homogeneous solution. Samples that show hazing or clouding and formulas that appear macroscopically heterogeneous (e.g. multiple layers) at room temperature are not considered for further analysis and evaluation.
The viscosities of the formulations are measured with calibrated viscometers (Size 200/350/450) from Cannon Instrument Company (2139 High Tech Road, State College, Pa., USA, 16803). Prior to the measurement, the formulations are equilibrated in the viscometer reservoir for 30 min at 40° C. in water bath to ensure a homogeneous temperature is reached in the system.
as §1, with “are” for “were”, “is” for “was”, “samples, the” for “samples,”

SMILES | Kinematic viscosity at 40 C. [cSt] 2% oil [cSt] | Kinematic viscosity at 40 C. [cSt] Lowest viscosity achieved [cSt] | Kinematic viscosity at 40 C. [cSt] 4% oil [cSt] | Kinematic viscosity at 40 C. [cSt] 6% oil [cSt] | Kinematic viscosity at 40 C. [cSt] 8% oil [cSt]
CCC(=O)O[C@@H]1C[C@H]2CC[C@]1(C)C2(C)C (racemic) [Iso Bornyl Propionate] | 463.1 | 463 |  |  | 
CCCCCCCC(OC)OC [1,1-Dimethoxyoctane] | 500.7 | 308 | 308.1 |  | 
CC(C)CC=C(C=O)C(C)C [2-Isopropyl-5-methyl-2-hexenal] | 332.3 | 332 |  |  | 
CC(=O)OCCC(C)CCCC(C)C (stereo not drawn) [3,7-Dimethyloctyl Acetate] | 445.7 | 446 |  |  | 
CCC(CC(C)CC)=NO (stereo not drawn) [5-Methyl-3-Heptanone Oxime] | 246.3 | 246 |  |  | 
CCCCOC(=O)c1ccccc1O [Butyl Salicylate] | 367.9 | 368 |  |  | 
CC12CCC(CC1=O)C2(C)C (stereo not drawn) [Camphor Gum] | 365.8 | 127 | 127.2 |  | 
CC(=O)OCCC(C)CCC=C(C)C (stereo not drawn) [Citronellyl Acetate] | 362.7 | 363 |  |  | 
CCC(=O)OC1CC2CC1C1CC=CC21 (stereo not drawn) [Cyclaprop] | 404.2 | 404 |  |  | 
CCCCCCC1C(=O)CCC1C(=O)OC (stereo not drawn) [Dihyro Iso Jasmonate] | 334.9 | 119 | 119.1 |  | 
C=C(C)[C@H]1CC=C(C)CC1 [Dipentene] | 307.6 | 35 | 74.5 | 35.1 | 42.6
CCO [Ethanol, reference compound] | 205.6 | 29 | 111.0 | 50.8 | 29.2
CC12CCC(CC1)C(C)(C)O2 [Eucalyptol] | 527.3 | 203 | 292.9 | 203.1 | 
CC(C)=CCC/C(C)=C/COC(=O)Cc1ccccc1 [Geranyl Phenyl Acetate] | 224.0 | 34 | 76.0 | 34.3 | 36.6
CCCCCCCCCCCCCCCC [Hexadecane] | 21.1 | 18 | 18.1 |  | 
CC(CC=O)CCCC(C)(C)O (stereo not drawn) [Hydroxycitronellal] | 310.8 | 34 | 145.4 | 65.9 | 34.1
CC(C)COC(=O)c1ccccc1O [Iso Butyl Salicylate] | 408.7 | 409 |  |  | 
CCCCCCCCCCCCCC(=O)OC(C)C [Iso Propyl Myristate] | 234.2 | 30 | 53.7 | 30.4 | 45.0
CC(C)CCOC(=O)c1ccccc1O [Isoamyl Salicylate] | 460.3 | 193 | 193.2 |  | 
CCCCCC(=O)OCC(C)C [Isobutyl Hexanoate] | 390.0 | 109 | 177.9 | 140.9 | 109.4
C=C(C)[C@H]1CC=C(C)CC1 [Limonene] | 366.5 | 86 | 166.8 | 97.5 | 86.4
C=CC(C)(CCC=C(C)C)OC(=O)C(C)C (stereo not drawn) [Linalyl Iso Butyrate] | 223.4 | 38 | 73.0 | 37.7 | 39.9
COC(C)(C)C1CC=C(C)CC1 (stereo not drawn) [Orange Flower Ether] | 552.2 | 419 | 418.8 |  | 
CC(=O)CCc1ccc(O)cc1 [Raspberry Ketone] | 151.9 | 33 | 107.4 | 54.0 | 33.0
CCOC(=O)CC(O)(CC(=O)OCC)C(=O)OCC [Triethyl Citrate] | 269.4 | 41 | 136.6 | 66.6 | 40.5
CCCCCC1(C)CCC(C)(C)C1=O (stereo not drawn) [Veloutone] | 260.2 | 47 | 129.1 | 56.3 | 47.3
CC1=CC=C(C(C)C)CC1 [alpha-Terpinene] | 324.4 | 42 | 96.0 | 41.5 | 46.7
CC1=CCC(C(C)C)=CC1 [gamma-Terpinene] | 238.0 | 32 | 65.0 | 31.7 | 
